{"source": "patent US20120296403A1", "about": "“METHODS AND COMPOUNDS FOR MUSCLE GROWTH” (NOVARTIS AG, priority 2010, published 2012)", "molecules": {"B1": {"name": "Fbxo40, endogenous in C2C12 myotubes (protein)", "chain": "MGRARKPPPALHRHCEGCFNRHCHVPVEPSVSCLVISCHLLCGATFHMCKESEHTLLCPLEQVPCLNSEYGCPLSMARHKLAKHLQVCPASVVCCSMEWIRWPNVDSETFLHENIMKETPSEECLDTALALQDQKVLFRSLKMVELFPETRDATEEEPDMNGDTSWEETGGAVGGVDARLAPNSCLPATSRQMMELSQEERDALAKTKEGMDLDKFGKWESMFSKEHAASVLTGSLGKSEDKNGDVAGKEQCSSNVRIGDAEGSAERRGPQESQKSQELPATMEMTGLAPWQDGVLERLKTAVDAKDYNMYLVHNGRMLIHFGQMPACTPKERDFVYGNLEAQEVKTVYTFKIPVSYCGKRARLGDAMLKCRPSEHKAVDTSDLGISVEDLPKSDLIKTTLQCALERELKGHVISESRSIDGLFMDLATQTYNFEPEQFSSETVLADLLGTAQPGGLHVELHSECVTRRHNKSSSAFTFTCNKFFRRDEFPLHFKNVHTDIQSSLDGWFQHRCPLAYLGCTFVQNHFRPPGQKAKVIYSQELKTFAIKPEVAPELSEKWKSDHLSGRDGKSLNSLTSLPLEVLQYIAGFLDSISLSQLSQVSVLMRNICATLLQERGMVLSQWKKKRYSHGGTSWKVHNQIWQFSSLFSKINSWEFNDVTSMSEHLKTCPFNIVERKTDPIRLTSMCQPQEKARESLVSTFRARPRGRHF"}}, "key": {"IRS1 [1]": {"test_system": "IRS1", "experiment": "IRS1 degradation / protein stability in C2C12 myotubes (Western blotting)", "assay_type": "cell-based, mouse", "conditions": "for IRS1 degradation upon treatment: increasing concentration, along with protein synthesis inhibitor Emetin, dose-dependent", "method": "Differentiated C2C12 myotubes are treated with increasing concentration of IGF1 or dexmethasome (DEX), a glucocorticoid that can lead to muscle atrophy, along with protein synthesis inhibitor Emetin (Eme). […] In C2C12 myotubes, IRS1 is rapidly degraded upon IGF1 treatment with a half-life of around 2 hours (FIGS. 4B and 4E).\nCells are washed twice with warm serum free DMEM and starved in serum free DMEM for 4 hours with an exchange of fresh medium in the middle. Then the signaling inhibitors are added to pretreat cells for 30 min before incubation with freshly prepared inhibitors with 10 nM IGF1 (the R3 form, Sigma, St. Louis, Mo.) or 10 μM Emetin (Sigma, St. Louis, Mo.) or 20 μM MG132 (Alexis Biochemicals, Carlsbad, Calif.) as specified for an additional 5 hours. Cells are rinsed two times with ice-cold PBS and harvested in ice-cold RIPA buffer with 10 μM MG132 and protease/phosphatase inhibitors tablets (Roche, Basel, Switzerland). Cell lysates are rotated at 4° C. for at least one hour, and spun for 10 min at 16,000×g in a micro centrifuge at 4° C. Protein concentrations of the supernatants are determined by BCA Protein Assay Kit (Pierce/Thermo Fisher Scientific, Rockford, Ill.). Equal amounts of proteins (10-20 μg) are loaded per lane on 4-12% Bis-Tris gels (Invitrogen, Carlsbad, Calif.) and transferred onto PVDF membranes (Millipore, Billerica, Mass.). Membranes are blocked in 10% (w/v) milk in TBST for 1 hour at room temperature, followed by incubation with primary antibody in TBST with 5% BSA at 4° C. for overnight. Secondary antibodies are incubated with membranes at room temperature for 1 hour. Immunoreactivity is detected by ECL and exposed to film or Kodak Image Station 4000R (Eastman Kodak Company, Rochester, N.Y.). Densitometry is analyzed using Kodak Molecular Imaging software, version 4.0.\nCells are washed twice with warm serum-free DMEM and starved in serum-free DMEM for 4 hours with an exchange of fresh medium in the middle. At time zero, 10 μM Emetin, or 100 μg/ml of cycloheximide, or 10 nM IGF1, or 20 μM MG132 are added to cells as specified. At the indicated time intervals, cells are rinsed twice with PBS and harvested in ice-cold RIPA buffer with 10 μM MG132 and protease/phosphatase inhibitors. Cell lysates are rotated at 4° C. for at least one hour, and spun for 10 min at 16,000×g in a micro centrifuge at 4° C. The supernatants are analyzed by western blotting."}, "Fbxo40": {"test_system": "Fbxo40", "experiment": "Fbxo40 protein level after MG132 incubation (co-immunoprecipitation experiment, C2C12 myotubes)", "assay_type": "cell-based, mouse", "conditions": "20 μM MG132", "text": "Ye et al. 2007 Gene 404: 53-60. We survey the FirstChoice Human Total RNA Panel by quantitative real-time PCR and find that Fbxo40 is highly expressed in heart and muscle (FIG. 3). Furthermore, its mRNA (FIG. 6B) and protein (FIG. 8A) is induced during differentiation of C2C12 cells, which coincides with the accelerated degradation of IRS1 in C2C12 myotubes. IRS1 and Rbx1 can be co-immunoprecipitated with antibody against Fbxo40 (FIG. 6C). […] We also use this immunoprecipitated Fbxo40-Rbx1 complex to ubiquitinate recombinant IRS1 in-vitro and find that IRS1 can be ubiquitinated in a time-dependent manner (FIG. 6D). In this experiment, we include six control reactions. The first four controls are the reactions carried out at 30° C. for 90 min with the omission of E1, or E2 (UbCH5c), or His6-Biotin-N-terminal Ubiquitin, or recombinant IRS1 respectively. The last two controls are full reactions carried out without immunoprecipitated Fbxo40 (with beads incubated with lysate without IgG or with nonspecific rabbit IgG). Poly-ubiquitinated IRS1 can be observed in full reactions after 60 min or 90 min at 30° C.\nAlternatively, in the experiment of IRS1 and Rbx1 Co-Immunoprecipitation with Fbxo40, day 3 C2C12 myotubes are starved and treated with 10 nM IGF1 or 20 μM MG132 as described above. […]"}, "IRS1 [2]": {"test_system": "IRS1", "experiment": "In-vivo ubiquitination assay and immunoprecipitation of IRS1 in C2C12 myotubes", "assay_type": "cell-based, mouse", "conditions": "C2C12 myotubes overexpressing his-myc tagged ubiquitin, 10 nM IGF1", "method": "Since ubiquitinated proteins are rapidly degraded in cells, in order to detect ubiquitinated IRS1 protein in the experiment shown in FIG. 4C, C2C12 myotubes are infected with an adenovirus overexpressing his-myc tagged ubiquitin and incubated with IGF1 along with MG132 or an isopeptidase inhibitor G5. IRS1 is immunoprecipitated with the rabbit polyclonal anti-IRS1 antibody (lanes 6, 8, 10, 12) or non-specific IgG (lanes 5, 7, 9, 11) as control. Poly-ubiquitination is detected with monoclonal anti-myc antibody against the his-myc tagged ubiquitin and is found to be specifically immunoprecipitated with IRS1 (FIG. 4C, upper panel). […] Note that in the upper panel of FIG. 4C, G5 treatment also causes an upper shift of his-myc tagged ubiquitin in comparison to MG132 treatment alone (compare lane 10 to lane 8). In agreement with the induced degradation of IRS1 upon IGF1 treatment, poly-ubiquitinated IRS1 also increases with IGF1 treatment (FIG. 4D, upper panel) despite that the total amount of ubiquitinated proteins in cells even decreased a little (FIG. 4D, lower panel).\nA His-myc-ubiquitin adenoviral expression constructs are sent to Welgen Inc. (Worcester, Mass.) for production and purification. […] Protein concentration in the supernatant is determined by BCA analysis. […] An aliquot (20 μg) of the lysate is analyzed by Western blotting along with 100% of the eluate."}, "[3]": {"biological_target": "purified recombinant IRS1 protein (Millipore)", "sequence (P35568 whole entry)": "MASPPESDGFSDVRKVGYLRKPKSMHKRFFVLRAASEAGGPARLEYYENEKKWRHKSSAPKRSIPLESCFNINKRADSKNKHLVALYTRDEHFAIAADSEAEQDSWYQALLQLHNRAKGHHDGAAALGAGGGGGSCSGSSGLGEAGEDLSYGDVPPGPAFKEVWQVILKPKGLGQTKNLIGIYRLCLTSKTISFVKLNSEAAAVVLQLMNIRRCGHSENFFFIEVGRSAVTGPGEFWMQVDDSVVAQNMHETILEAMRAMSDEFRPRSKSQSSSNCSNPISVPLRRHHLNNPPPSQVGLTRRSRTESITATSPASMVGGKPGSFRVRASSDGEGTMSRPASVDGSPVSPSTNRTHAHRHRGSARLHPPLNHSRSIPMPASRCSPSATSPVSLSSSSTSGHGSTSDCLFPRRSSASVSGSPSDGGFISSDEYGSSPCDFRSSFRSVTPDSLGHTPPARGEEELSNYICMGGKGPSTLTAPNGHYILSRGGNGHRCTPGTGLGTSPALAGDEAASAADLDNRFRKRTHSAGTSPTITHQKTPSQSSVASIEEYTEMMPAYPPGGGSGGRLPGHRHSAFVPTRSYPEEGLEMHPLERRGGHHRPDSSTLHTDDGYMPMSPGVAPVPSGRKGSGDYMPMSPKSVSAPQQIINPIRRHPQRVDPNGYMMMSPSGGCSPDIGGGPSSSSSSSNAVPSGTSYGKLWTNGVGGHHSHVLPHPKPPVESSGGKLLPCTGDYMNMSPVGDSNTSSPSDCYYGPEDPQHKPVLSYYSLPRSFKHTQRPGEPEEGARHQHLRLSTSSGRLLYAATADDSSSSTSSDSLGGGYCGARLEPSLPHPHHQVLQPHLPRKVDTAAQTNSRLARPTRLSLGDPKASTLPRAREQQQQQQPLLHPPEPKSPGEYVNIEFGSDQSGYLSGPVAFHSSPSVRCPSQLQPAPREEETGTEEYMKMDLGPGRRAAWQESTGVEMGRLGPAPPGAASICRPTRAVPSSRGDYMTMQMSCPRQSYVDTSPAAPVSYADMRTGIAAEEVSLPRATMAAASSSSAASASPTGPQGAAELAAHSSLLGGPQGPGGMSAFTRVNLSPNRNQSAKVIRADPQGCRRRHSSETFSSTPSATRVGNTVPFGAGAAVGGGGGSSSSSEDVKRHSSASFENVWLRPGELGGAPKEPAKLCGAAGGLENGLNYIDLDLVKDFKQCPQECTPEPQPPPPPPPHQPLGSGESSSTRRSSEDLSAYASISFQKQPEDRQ"}}, "note": "Where a SMILES comes first, the peptide text is derived from it. The star is where a group is joined. Cbz = O=C(OCc1ccccc1)*"}
{"molecule": "CC(C)C[C@@H](C=O)NC(=O)[C@H](CC(C)C)NC(=O)[C@H](CC(C)C)NC(=O)OCc1ccccc1", "note": "[MG132, reference compound] (Cbz-Leu-Leu-Leu-aldehyde)", "values": [{"measurement": "stabilization of IRS1 protein", "setting": "IRS1 [1]; IGF1 treatment, 20 μM MG132", "value": "substantially stabilizes"}, {"measurement": "Fbxo40 protein level after incubation with MG132", "setting": "Fbxo40", "value": "increases"}]}
{"molecule": "insulin-like growth factor-1 (IGF1)", "values": [{"measurement": "half-life of IRS1 upon IGF1 treatment", "setting": "IRS1 [1]; 10 nM IGF1", "value": "around 2 hours"}, {"measurement": "protein level of IRS1 in cells treated with IGF1 alone", "setting": "IRS1 [1]; IGF1 alone (no Emetin), slower kinetics", "value": "decreases"}, {"measurement": "IRS1 degradation upon treatment", "setting": "IRS1 [1]", "value": "IRS1 is degraded"}, {"measurement": "poly-ubiquitinated IRS1", "setting": "IRS1 [2]", "value": "increases"}]}
{"molecule": "C[C@@H]1C[C@H]2[C@@H]3CCC4=CC(=O)C=C[C@]4(C)[C@@]3(F)[C@@H](O)C[C@]2(C)[C@@]1(O)C(=O)CO", "note": "[DEX, dexmethasome, reference compound]", "values": [{"measurement": "IRS1 degradation upon treatment", "setting": "IRS1 [1]", "value": "not"}]}
{"molecule": "B1", "values": [{"measurement": "in-vitro ubiquitination of recombinant IRS1 (streptavidin-HRP blot of His6-Biotin-ubiquitin)", "setting": "[3]", "value": "IRS1 can be ubiquitinated in a time-dependent manner"}]}
